Here are results for 1 compound from US7196070B2, “Prophylactic and therapeutic treatment of the ductal epithelium of a mammary gland for cancer” (priority 1995, dated 2007).

This experiment has as its system NMU-induced mammary tumors. In words: Prophylaxis of NMU-induced mammary tumors after intraductal injection. It is filed as in vivo, Sprague Dawley rats. The settings on record: rat mammary glands, NMU 50 mg/kg i.v. after treatment, monitored 8 months. The method, then:
The mammary glands (6 on each side) of six virgin 50 day old Sprague Dawley rats were injected with AdHS-tk on the left side and trypan blue on the right side or left untreated. One rat remained completely untreated with the virus or GCV and served as a positive control for NMU-induced tumorigenesis. On the day of surgery, rats were given an intramuscular injection of 5 μg estradiol valerate and were anesthetized with an isofluorane/O2 mixture. The nipples were cannulated with a 33 gauge needle. Twenty μl of AdHS-tk diluted in trypan blue carrier (1 mM MgCl2, 20 μg/ml polybrene in 10% glycerol, 0.4% trypan blue in saline) at a concentration of 5×10^7 particles/μl were injected into the duct. Carrier control mammary glands received 20 μl of trypan blue carrier alone. An animal was considered treated when at least three glands were successfully injected with trypan blue and another three glands were successfully injected with AdHS-tk. The remaining glands were left untreated. Twelve hrs later, the rats were injected with 125 mg/kg body weight GCV twice daily for three days. […] Five to seven days after GCV treatment, the rats were given an intravenous injection of NMU dissolved in 0.05% acetic acid (Ash Stevens, CO; 50 mg NMU/kg body weight) and were subsequently monitored for general health and the appearance of tumors at weekly intervals for 8 months.

For `Nc1nc(O)c2ncn(COC(CO)CO)c2n1` [Ganciclovir, ganciclovir], the “% of Glands with Tumor” value worked out at 25.0% and the “No. of Tumors” value is reported as 5.
